Values of other authors, collected in patent US10835538B2, “Method of treating benign prostatic hyperlasia with antibiotics” (Nymox Corporation, priority 2018, dated 2020).

Compound: CC(COc1ccccc1)N(CCCl)Cc1ccccc1 (centres unmarked) [phenoxybenzamine]
- Cases treated in which side effects cannot be tolerated and therapy has to be abandoned (human, in vivo): about 10%
- Patients treated for BPH in whom side effects are present (hypotension, dizziness, faintness, tachycardia, weakness, retrograde or absent ejaculation): approximately 30%
